# Reference: US4880789A, “2'-Substituted-4-deoxy-thiazolo(5,4-c)-rifamycin SV derivatives” (Gruppo Lepetit S.P.A., priority 1985, dated 1989)
# Where two headings read alike, the source gives them in different places.
# Columns and labels:
# [1] = system: Staphylococcus aureus ATCC 6538; assay: MIC, two-fold dilution microtiter, S. aureus ATCC 6538; type: cell-based; settings: S. aureus ATCC 6538, Iso-Sensitest broth, 18-24 h, 37° C
# [2] = system: S. aureus TOUR L 165; assay: MIC, two-fold dilution microtiter, S. aureus TOUR L 165; type: cell-based, Staphylococcus aureus
# [3] = system: Streptococcus pyogenes C203; assay: MIC, two-fold dilution microtiter, S. pyogenes C203; type: cell-based; settings: Todd-Hewitt broth, 18-24 h, 37° C
# Protocol: (§1) The minimum inhibitory concentration (MIC) of representative compounds of the invention was determined using two-fold dilution method in microtiter system. The media used were: Todd-Hewitt broth (Difco) for steptococci; Iso-Sensitest broth (Oxoid) for staphylococci and gram-negative bacteria. The final inoculum was about 10^4 cfμ/ml. […] For M. tuberculosis H37 RV the inoculum consisted of 0.5-1% of a 7-9 day culture in Dubos medium. The tests were carried out in Kirschner medium supplemented with 10% horse serum. Observations were made after 7-days incubation at 37° C.
# [4] = system: S. faecalis ATCC 7080; assay: MIC, two-fold dilution microtiter, S. faecalis ATCC 7080; type: cell-based; settings: 37° C
# [5] = system: S. pneumoniae UC 41; assay: MIC, two-fold dilution microtiter, S. pneumoniae UC 41; type: cell-based; settings: 18-24 h, 37° C
# [6] = system: Proteus vulgaris XI9H ATCC 881; assay: MIC, two-fold dilution microtiter, P. vulgaris; type: cell-based; settings: P. vulgaris XI9H ATCC 881, Iso-Sensitest broth, 18-24 h, 37° C
# [7] = system: Escherichia coli SKF 12140; assay: MIC, two-fold dilution microtiter, E. coli SKF 12140; type: cell-based; settings: 18-24 h, 37° C
# [8] = system: Klebsiella pneumoniae ISM; assay: MIC, two-fold dilution microtiter, K. pneumoniae ISM; type: cell-based
# [9] = system: Pseudomonas aeruginosa ATCC 10145; assay: MIC, two-fold dilution microtiter, P. aeruginosa ATCC 10145; type: cell-based; settings: P. aeruginosa ATCC 10145, Iso-Sensitest broth, 18-24 h, 37° C
# [10] = system: Mycobacterium tuberculosis H37RV ATCC 9360; assay: MIC, M. tuberculosis H37RV, Kirschner medium; type: cell-based; settings: 10% horse serum, 7 days, 37° C
# Protocol: as §1
# [11] = system: S. aureus TOUR L 1282; assay: MIC, two-fold dilution microtiter, rifampicin resistant S. aureus TOUR L 1282; type: cell-based; settings: Staphylococcus aureus, TOURL1282, rifampicin resistant strain
# [12] = system: S. aureus tour L 165; assay: experimental septicemia in mice (S. aureus); type: in vivo; settings: Staphylococcus aureus, once daily for three days, survival on 10th day
# Protocol: The antimicrobial activity of the compounds of the invention is also confirmed in "in vivo" tests. The animals (groups of five mice) were infected by intraperitoneal injection of 16-hour broth culture of S. aureus tour L 165. Inocula were adjusted so that untreated animals died of septicemia within 48 hours. Animals were treated once daily for three days starting immediately after infection. On the 10th day the value for the ED50 in mg/kg/day was calculated by the method of […]-KARBER (Finney, D. J., Statistical method in biological assay, page 524. C. Griffin Ltd., London, 1952), on the basis of the percentage of surviving animals at each dose.
# [13] = Staphylococcus aureus, ATCC6538, read-out: MIC
# [14] = Staphylococcus aureus, TOURL165, S. aureus TOUR L 165, Iso-Sensitest broth, 18-24 h, 37° C, read-out: MIC
# [15] = Staphylococcus aureus, TOURL165, S. aureus TOUR L 165, supplemented with 30% bovine serum, read-out: MIC
# [16] = Streptococcus pyogenes, read-out: MIC
# [17] = Enterococcus faecalis, ATCC7080, 18-24 h, read-out: MIC
# [18] = Streptococcus pneumoniae, UC41, Todd-Hewitt broth, read-out: MIC
# [19] = Proteus vulgaris, ATCC881, read-out: MIC
# [20] = Escherichia coli, SKF12140, Iso-Sensitest broth, read-out: MIC
# [21] = Klebsiella pneumoniae, K. pneumoniae ISM, Iso-Sensitest broth, 18-24 h, 37° C, read-out: MIC
# [22] = Pseudomonas aeruginosa, ATCC10145, read-out: MIC
# [23] = Mycobacterium tuberculosis, 168 h, read-out: MIC
Compound,"MIC [1, 13] [µg/mL]","MIC [2, 14] [µg/mL]","MIC [2, 15] [µg/mL]",MIC [11] [µg/mL],"MIC [3, 16] [µg/mL]","MIC [4, 17] [µg/mL]","MIC [5, 18] [µg/mL]","MIC [6, 19] [µg/mL]","MIC [7, 20] [µg/mL]","MIC [8, 21] [µg/mL]","MIC [9, 22] [µg/mL]","MIC [10, 23] [µg/mL]","ED50 ([12]; TOURL165, 240 h, sc) [mg/kg]","ED50 ([12]; TOURL165, po, 240 h, os) [mg/kg]",further results
"2'(4""-phenylmethoxycarbonyl-1""-piperazinyl) rifamycin P [Example 1f]",,,,,,,,,,,,,,,"MIC [1]: 0.064 µg/mL; MIC ([2]; S. aureus TOUR L 165, Iso-Sensitest broth, 18-24 h, 37° C): 0.064 µg/mL; MIC ([2]; S. aureus TOUR L 165, supplemented with 30% bovine serum): 0.064 µg/mL; MIC [3]: 0.125 µg/mL; MIC ([4]; 18-24 h): 2 µg/mL; MIC ([5]; Todd-Hewitt broth): 0.064 µg/mL; MIC [6]: 64 µg/mL; MIC ([7]; Iso-Sensitest broth): > 128 µg/mL; MIC ([8]; K. pneumoniae ISM, Iso-Sensitest broth, 18-24 h, 37° C): > 128 µg/mL; MIC [9]: 32 µg/mL; MIC [10]: 0.5 µg/mL"
"COC1C=COC2(C)Oc3c(C)c(O)c4c(O)c(c5sc(N6CCCC6)nc5c4c3C2=O)NC(=O)C(C)=CC=CC(C)C(O)C(C)C(O)C(C)C(OC(C)=O)C1C (stereo not drawn) [Example 1a, 2'-(1""-PyrrolidinyL) rifamycin P]",0.016,0.004,0.016,> 128,0.008,2,0.032,16,16,32,8,2,,,
"COC1C=COC2(C)Oc3c(C)c(O)c4c(O)c(c5sc(N6CCOCC6)nc5c4c3C2=O)NC(=O)C(C)=CC=CC(C)C(O)C(C)C(O)C(C)C(OC(C)=O)C1C (stereo not drawn) [Example 1b, 2'-(4""-morpholinyl) rifamycin P]",0.001,0.002,0.008,64,0.032,1,0.016,8,16,32,16,2,0.21,0.21,
"COC1C=COC2(C)Oc3c(C)c(O)c4c(O)c(c5sc(N6CCN(c7ccccc7)CC6)nc5c4c3C2=O)NC(=O)C(C)=CC=CC(C)C(O)C(C)C(O)C(C)C(OC(C)=O)C1C (stereo not drawn) [Example 1c, 2'(4""-phenyl-1""-piperazinyl) rifamycin P]",0.004,0.008,0.016,> 128,0.032,1,0.004,16,4,,8,1,0.63,2.5,MIC ([8]; Klebsiella pneumoniae): > 128 µg/mL
"COC1C=COC2(C)Oc3c(C)c(O)c4c(O)c(c5sc(N6CCN(Cc7ccccc7)CC6)nc5c4c3C2=O)NC(=O)C(C)=CC=CC(C)C(O)C(C)C(O)C(C)C(OC(C)=O)C1C (stereo not drawn) [Example 1d, 2'(4""-phenylmethyl-1""-piperazinyl) rifamycin P]",0.004,0.008,0.016,> 128,0.064,1,0.064,32,32,64,16,0.125,,,
"CCOC(=O)N1CCN(c2nc3c(s2)c2c(O)c4c(O)c(C)c5c(c43)C(=O)C(C)(OC=CC(OC)C(C)C(OC(C)=O)C(C)C(O)C(C)C(O)C(C)C=CC=C(C)C(=O)N2)O5)CC1 (stereo not drawn) [Example 1e, 2'(4""-ethoxycarbonyl-1""-piperazinyl) rifamycin P]",0.032,0.064,0.064,128,0.064,4,0.064,16,16,32,32,2,,,
